Results: article PMC11521691, “Elucidating the antimicrobial and anticarcinogenic potential of methanolic and water extracts of edible Tragopogon coelesyriacus Boiss” (Food Science & Nutrition, 2024)

Assays:
[1] = tested on: MCF10A (breast epithelial) cells; test: MTT cytotoxicity assay; format: cell-based, human; settings: MCF10A normal cells
Procedure: (§1) This study included three epithelial cancerous (AR42J, pancreatic cancer; HeLa, cervical cancer, and MDA‐MB‐231 breast cancer) and two noncancerous epithelial human cells (ARPE‐19, retina; and MCF10A, breast). AR42J (ECACC, Cat No. 93100618) and MDA‐MB‐231 (ATCC, Cat No. HTB‐26) cells were cultured in RPMI media. HeLa cells (ATCC, Cat No. CCl‐2) were cultured in EMEM media. ARPE‐19 (ATCC, Cat No. CRL‐2302) and MCF10A (ATCC, Cat No. CRL‐10317) cells were cultured in DMEM. Each medium consisted of penicillin–streptomycin (1%) and fetal bovine serum (10%). Cells were cultured in a 37°C incubator with 5% CO2 humidification. Cells were cultured in 96‐well plates as 10.000 cells per well. After they reached at 80% confluency, cells were treated with extracts. For this, experiments for each cell included two groups, (1) treated with T. coelesyriacus extracts obtained by methanol for 24 h, 48 h, and 72 h at 3.125, 6.25, 12.5, 25, […], 100, and 200 μg/mL, and (2) treated with T. coelesyriacus extracts obtained by water for 24 h, 48 h, and 72 h at 3.125, 6.25, 12.5, 25, […], 100, and 200 μg/mL. Control wells for each cell were untreated (0 μg/mL). Positive control experiments were performed with cisplatin at the same concentrations with extracts (3.125–100 μg/mL) for 24 h, 48 h, and 72 h. For each dose at each concentration, at least three wells were used as intra‐experimental repeats. The whole experiments for each cell were repeated as two to three independent replications.
(§2) After treatment with different extracts (at 3.125, 6.25, 12.5, 25, 50, 100, and 200 μg/mL for 24 h, 48 h, and 72 h), media with extracts were removed, and the MTT protocol was applied as before (Cakmak et al., [2021]). MTT was also applied after cisplatin treatment for 24 h, 48 h, and 72 h. The concentrations of cisplatin used were 3.125, 6.25, 12.5, 25, 50, and 100 μg/mL. In this method, 200 μL of media, including 10 μL MTT (3‐(4,5‐dimethylthiazol‐2‐yl)‐2,5‐diphenyltetrazolium bromide), was added to each well and incubated at 37°C for 2.5 h. After incubation, media with MTT were removed, and 150 μL of DMSO was added to each well for dissolving formazan crystals. Subsequently, plates were incubated in the dark on a shaker for 1 h. Absorbances at 570 nm were read. Cell viabilities (as percentages) were calculated according to the viability of untreated cells considered as 100%. If applicable, IC50 values were calculated as before (Uzuner et al., [2021]).

[2] = tested on: HeLa (cervical cancer) cells; test: MTT cytotoxicity assay; format: cell-based, human
Procedure: as §1, §2

[3] = tested on: ARPE‐19 (retinal epithelial) cells; test: MTT cytotoxicity assay; format: cell-based, human; settings: ARPE19 normal cells
Procedure: as §1, §2

[4] = tested on: MDA‐MB‐231 (breast cancer) cells; test: MTT cytotoxicity assay; format: cell-based, human
Procedure: as §1, §2

[5] = tested on: AR42J (pancreatic cancer) cells; test: MTT cytotoxicity assay; format: cell-based, human
Procedure: as §1, §2

[6] = tested on: HeLa cells; set-up: method as in Liu et al., 2008; settings: 25 μg/mL for 72 h, ref Liu et al., 2008; cited from earlier work

N.N.[Cl][Pt][Cl] [cisplatin]
Ave IC50 values ([1]; 24 h): 33.56 µg/mL
Ave IC50 values ([1]; 48 h): 26.03 µg/mL
Ave IC50 values ([1]; 72 h): 8.32 µg/mL
Ave IC50 values ([2]; 24 h): 8.16 µg/mL
Ave IC50 values ([2]; 48 h): 13.92 µg/mL
IC50 value ([2]; 72 h incubation): 4.56 µg/mL
Ave IC50 values ([3]; 24 h): 63.42 µg/mL
Ave IC50 values ([3]; 48 h): 54.14 µg/mL
Ave IC50 values ([3]; 72 h): 16.01 µg/mL
Ave IC50 values ([4]; MDA‐MB‐231, 24 h): 41.28 µg/mL
Ave IC50 values ([4]; MDA‐MB‐231, 48 h): 27.87 µg/mL
IC50 value ([4]; MDA‐MB‐231, 72 h incubation): 10.92 µg/mL
IC50 value ([5]; 24 h incubation): 18.94 µg/mL
IC50 value ([5]; 48 h incubation): 14.84 µg/mL
IC50 value ([5]; 72 h incubation): 6.18 µg/mL
cell death [6]: ~90%
